# In US20250000834A1, “COMPOSITIONS AND METHODS FOR TARGETING GPCR FOR THE PREVENTION AND TREATMENT OF PAIN” (Duke University, priority 2021, published 2025):
# Target: T1, hGPR37L1 (Homo sapiens, UniProt O60883)
# T1 sequence (O60883 26-481): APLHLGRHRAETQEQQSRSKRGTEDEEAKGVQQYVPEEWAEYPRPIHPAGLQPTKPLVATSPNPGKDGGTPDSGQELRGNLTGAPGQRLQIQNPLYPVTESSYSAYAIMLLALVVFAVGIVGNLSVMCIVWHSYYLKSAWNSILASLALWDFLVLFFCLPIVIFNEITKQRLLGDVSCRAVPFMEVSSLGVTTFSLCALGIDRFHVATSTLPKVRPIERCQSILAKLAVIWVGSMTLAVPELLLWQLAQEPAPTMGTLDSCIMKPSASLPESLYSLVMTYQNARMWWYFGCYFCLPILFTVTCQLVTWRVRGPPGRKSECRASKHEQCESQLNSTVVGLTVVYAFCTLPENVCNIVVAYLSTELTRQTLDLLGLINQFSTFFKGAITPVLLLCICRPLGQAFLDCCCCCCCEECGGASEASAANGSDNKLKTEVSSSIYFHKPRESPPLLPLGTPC
# Test: Beta-arrestin assay (PathHunter hGPR37L1 CHO-K1)
# Assay type: cell-based
# Conditions: hGPR37L1 ChoK1 cells
# Experimental: Beta-arrestin assay: To screen for GPR37L1 ligands, the PathHunter® eXpress GPR37L1 CHO-K1 kit was purchased from Eurofins Discoveryone™ (DiscoverX Solutions for Drug Discovery, Fremont, CA; Cat #93-0378E2ACP1M). CHO-K1 cells express human GPR37L1 and were grown in 96-well plates for 48 hours. Lipid compounds were incubated with the ChoK1 cells for 1 hour at 37° C., and GPR37L1 activation was determined by measuring chemiluminescence using the beta-arrestin 2 (β-arrestin) detection kit (DiscoverX Solutions for Drug Discovery, Fremont, CA). The luminescent activity was measured using an Infinite F200 Pro Illuminometer (Tecan Trading AG, Switzerland).
# Eight different concentrations of compounds ranging from 0.1 nM to 100 nM were tested.
smiles,measurement,setting,value
"CC/C=C\C/C=C\C[C@H](O)\C=C/C=C/C=C/[C@H](O)C/C=C\CCC(=O)O [MaR1, Maresin 1]",potency relative to TX14 in β-arrestin 2 assay,,10 times
same,β-arrestin signaling,"0.1 nM to 100 nM, n=6",3.64 fold increase
same,EC50,"n=6, read-out: EC50 of β-arrestin response",0.97 nM
